From article PMC6857134, “Antimicrobial functional divergence of the cecropin antibacterial peptide gene family in Musca domestica” (Parasites & Vectors, 2019)
In brackets after ≈: the same amount, converted by molar mass. Residues, ends and D or L forms follow the SMILES beside them. No end group written: not given here.

Tests used:
A. baumannii 4367992 = assay: MIC by broth microdilution; type: cell-based, Acinetobacter baumannii; conditions: 37 °C, 24 h; for MIC / inhibitory concentration against A. baumannii: strain not given, broth microdilution
Protocol: (§1) Evaluation of the MIC of synthetic peptides was performed using broth microdilution techniques according to the guidelines of the Clinical and Laboratory Standards Association (CLSI). The antimicrobial spectrum and biological activity of the above chemically synthesized peptides were tested against six Gram-positive bacteria, five Gram-negative bacteria and one fungus. Overnight cultures of the 11 bacteria were grown in MHB at 37 °C and C. albicans was grown in Sabouraud dextrose broth (SDB) medium (Sangon, Shanghai, China) and cultured at 37 °C to mid-log phase and diluted to 1.5 × 10^6 CFU/ml. In a polypropylene 96-well round-bottom plate, 50 μl of bacteria was mixed with 50 μl of designed synthetic peptide dissolved in sterile distilled water (final concentration of 0–64 μM). Sterile distilled water was used as a negative control and polymyxin B dissolved in sterile distilled water as a positive control.

A. baumannii (4367992) = assay: Time-killing assay (growth curve, absorbance at 600 nm); type: cell-based, Acinetobacter baumannii
Protocol: The effect of peptides on the growth of an A. baumannii (4367992) isolate was examined as follows: the strain was cultured in nutrient agar for 18–20 h and adjusted to 0.5 McFarland units with MHB medium, then diluted 1:20 in MHB medium. Each peptide was added to one culture tube at a final concentration of 1× MIC or 2× MIC. […] The cultures were incubated for 24 h at 37 °C with shaking at 200× rpm, and the absorbance at 600 nm of 1 ml aliquots was recorded at 0.5–2 h intervals.

[1] = test system: tested microorganisms (Gram-positive bacteria, Gram-negative bacteria, one fungus); assay: MIC by broth microdilution, summary over the panel of tested microorganisms; type: cell-based; conditions: at concentrations up to 32 μM
Protocol: as §1

[2] = test system: extensive-drug-resistant A. baumannii (4367992); assay: Leakage of 260 nm absorbing material; type: cell-based, Acinetobacter baumannii; conditions: 0.5× MIC and 2× MIC, 0–8 h, 37 °C, 1 × 10^6 CFU/ml; three independent experiments
Protocol: The reference method was slightly modified, taking the logarithmic growth phase of extensive-drug-resistant A. baumannii (4367992) as detected bacteria. Five millilitres of bacterial suspension (1 × 10^6 CFU/ml) was treated with different concentrations of antimicrobial peptides (0.5× MIC, 2× MIC). After being placed at 37 °C and 150× rpm, aliquots (0.5 ml) of the treated bacterial suspension were removed at different intervals (0, 0.5, 1, 2, 4, 6 and 8 h). The aliquots were centrifuged (1000× rpm, 5 min) and the absorbance of supernatant was measured at 260 nm, using PBS as the control.

CC[C@H](C)CCCCC(=O)N[C@@H](CCN)C(=O)N[C@H](C(=O)N[C@@H](CCN)C(=O)N[C@H]1CCNC(=O)[C@H]([C@@H](C)O)NC(=O)[C@H](CCN)NC(=O)[C@H](CCN)NC(=O)[C@H](CC(C)C)NC(=O)[C@@H](Cc2ccccc2)NC(=O)[C@H](CCN)NC1=O)[C@@H](C)O [polymyxin B, reference compound] (HELM PEPTIDE1{[CC[C@H](C)CCCCC(=O)[*:2]].[Dab].T.[Dab].[Dab].[Dab].[dF].L.[Dab].[Dab].T}$PEPTIDE1,PEPTIDE1,5:R3-11:R2$$$V2.0; N-terminus assumed; bridges inferred)
MIC (A. baumannii 4367992; A. baumannii 4367992 (extensive-drug-resistant isolate), broth microdilution (CLSI), MHB, visual growth): 1.05 µM (≈ 1.26 µg/mL) | duration of antibacterial effect on A. baumannii (A. baumannii (4367992); Cec4 at 1× MIC and 2× MIC, polymyxin B at 1× MIC (1.05 μM), MHB, 37 °C, 200 rpm, absorbance 600 nm over 24 h, three independent experiments): ≤ 12 h

GWLKDFGRRIERVGQHTRDATIQAIGVAQQATDVAATLKGK [Cec9]
inhibitory effect on the other experimental strains (other than E. coli) [1]: no inhibitory effect

GWLKKIGKKIERVGQNTRDATIQAIGVAQQAANVAATLKGK [Cec4]
MIC / inhibitory concentration against A. baumannii (A. baumannii 4367992): 0.5 µM | leakage of 260 nm absorbing material (maximum absorbance at 260 nm) [2]: dose-dependent increase | time-kill kinetics, killing pattern (A. baumannii (4367992); A. baumannii in the logarithmic growth phase): rapid and concentration-dependent killing pattern

GWLKKVGKKIERVGQHTRDATIQGLGVAQQAANVVATVKGK [Cec3]
MIC / inhibitory concentration against A. baumannii (A. baumannii 4367992): 32 µM
